Source: US20050113450A1, “Antibacterial agents” (priority 2002, published 2005)
≈ marks a conversion by molar mass, not a printed value.

Each compound was assayed on SA 9218 (assay: MIC by standard agar dilution method). Conditions: Mueller Hinton agar, 10^4 to 10^5 cells per spot, incubated overnight at 35° C., lowest concentration that inhibits visible growth.
Type: cell-based
From the text: The antibacterial agents of this invention have useful activity against a variety of organisms. The in vitro activity of compounds of this invention can be assessed by standard testing procedures such as the determination of minimum inhibitory concentration (MIC) by agar dilution as described in “Approved Standard. Methods for Dilution Antimicrobial Susceptibility Tests for Bacteria That Grow Aerobically”, 3rd. ed., published 1993 by the National Committee for Clinical Laboratory Standards, Villanova, Pa., USA. The in vitro MICs of test compounds were determined by a standard agar dilution method. A stock drug solution of each analog was prepared in the preferred solvent, usually DMSO:H2O (1:3). Serial 2-fold dilutions of each sample are made using 1.0 ml aliquots of sterile distilled water. To each 1.0 ml aliquot of drug was added 9 ml of molten Mueller Hinton agar medium. The drug-supplemented agar was mixed, poured into 15×100 mm petri dishes, and allowed to solidify and dry prior to inoculation. Vials of each of the test organisms are maintained frozen in the vapor phase of a liquid nitrogen freezer. Test cultures are grown overnight at 35° C. on the medium appropriate for the organism. Colonies are harvested with a sterile swab, and cell suspensions are prepared in Trypticase Soy broth (TSB) to equal the turbidity of a 0.5 McFarland standard. A 1:20 dilution of each suspension was made in TSB. The plates containing the drug supplemented agar are inoculated with a 0.001 ml drop of the cell suspension using a Steers replicator, yielding approximately 10^4 to 10^5 cells per spot. The plates are incubated overnight at 35° C. Following incubation the Minimum Inhibitory Concentration (MIC μg/ml), the lowest concentration of drug that inhibits visible growth of the organism, was read and recorded.

| Structure (SMILES) | MIC [µg/mL] |
| --- | --- |
| O=C(Nc1ccc(-c2cccs2)cc1C(=O)O)c1ccc(S(=O)(=O)N2CCc3ccccc32)cc1 | 4 (≈ 7.93 µM) |
| CCCC(=O)c1ccc(NC(=O)c2ccc(S(=O)(=O)N3CCc4ccc(Cl)cc43)cc2)c(C(=O)O)c1 | 16 (≈ 30.4 µM) |
| O=C(Nc1ccc(C(=NO)c2ccccc2)cc1C(=O)O)c1ccc(S(=O)(=O)N2CCc3ccccc32)cc1 | 128 (≈ 236 µM) |
| CCON=C(c1ccccc1)c1ccc(NC(=O)c2ccc(S(=O)(=O)N3CCc4ccccc43)cc2)c(C(=O)O)c1 | 16 (≈ 28.1 µM) |
| CCON=C(c1ccc(NC(=O)c2ccc(S(=O)(=O)N3CCc4ccccc43)cc2)c(C(=O)O)c1)C(C)C | 64 (≈ 119 µM) |
| O=C(Nc1ccc(I)cc1C(=O)O)c1ccc(S(=O)(=O)N2CCSC2)cc1 | 32 (≈ 61.7 µM) |
| O=C(Nc1ccc(I)cc1C(=O)O)c1ccc(S(=O)(=O)N2CC=CC2)cc1 | 32 (≈ 64.2 µM) |
| N#CC1(c2ccccc2)CCN(S(=O)(=O)c2ccc(C(=O)Nc3ccc(I)cc3C(=O)O)cc2)CC1 | 4 (≈ 6.5 µM) |
| COC(=O)CCCC(=O)c1ccc(NC(=O)c2cccc(S(=O)(=O)N3CCc4ccc(Cl)cc43)c2)c(C(=O)O)c1 | 64 (≈ 109 µM) |
| O=C(Nc1ccc(C(=O)C2CCCC2)cc1C(=O)O)c1cccc(S(=O)(=O)N2CCc3ccc(Cl)cc32)c1 | 32 (≈ 57.9 µM) |
| COC(=O)CCCC(=O)c1ccc(NC(=O)c2cccc(S(=O)(=O)N3CCSC3)c2)c(C(=O)O)c1 | > 128 |
| O=C(Nc1ccc(I)cc1C(=O)O)c1cccc(S(=O)(=O)N2CCSC2)c1 | 8 (≈ 15.4 µM) |
| O=C(Nc1ccc(I)cc1C(=O)O)c1cccc(S(=O)(=O)N2CC=CC2)c1 | 8 (≈ 16.1 µM) |
| O=C(Nc1ccc(I)cc1C(=O)O)c1cccc(S(=O)(=O)N2CCN(c3ccccn3)CC2)c1 | 32 (≈ 54 µM) |
| CCCCCC(=O)c1ccc(NC(=O)c2ccc(S(=O)(=O)N3CCc4ccc(Cl)cc43)cc2)c(C(=O)O)c1 | 8 (≈ 14.4 µM) |
| O=C(Nc1ccc(C(=O)C2CCCC2)cc1C(=O)O)c1ccc(S(=O)(=O)N2CCc3ccc(Cl)cc32)cc1 | 16 (≈ 28.9 µM) |
| COc1cc(C(=O)c2ccc(C(=O)Nc3ccc(Cl)cc3C(=O)O)cc2)cc(OC)c1OC | 4 (≈ 8.51 µM) |

| Structure (SMILES) | MIC [µg/mL] |
| --- | --- |
| O=C(COc1ccc(Cl)cc1)c1ccc(C(=O)Nc2ccc(Cl)cc2C(=O)O)cc1 | 4 (≈ 9 µM) |
| Cl.NCc1ccc(C(=O)Nc2ccc(Br)cc2C(=O)O)cc1S(=O)(=O)N1CCc2ccccc21 | > 128 |
| O=C(Nc1ccc(Cl)cc1C(=O)O)c1ccc(C(=O)c2ccc3c(c2)OCO3)cc1 | 2 (≈ 4.72 µM) |
| COC(=O)C(Oc1ccc(C(=O)Nc2ccc(Br)cc2C(=O)O)cc1)c1ccccc1 (centres unmarked) | 64 (≈ 132 µM) |
| O=C(NCCOc1ccc(C(=O)Nc2ccc(Br)cc2C(=O)O)cc1)OCc1ccccc1 | 64 (≈ 125 µM) |
| COc1cc(COc2ccc(C(=O)Nc3ccc(Br)cc3C(=O)O)cc2)cc(OC)c1 | 8 (≈ 16.5 µM) |
| Cc1ccc(S(=O)(=O)Nc2cccc(C(=O)Nc3ccc(Br)cc3C(=O)O)c2)cc1 | 0.5 (≈ 1.02 µM) |
| Cc1ncsc1CCOc1ccc(C(=O)Nc2ccc(Br)cc2C(=O)O)cc1 | 32 (≈ 69.4 µM) |
| O=C(Nc1ccc(Br)cc1C(=O)O)c1ccc(OCCN2CCCC2=O)cc1 | > 128 |
| O=C(Nc1ccc(Cl)cc1C(=O)O)c1ccc(C(=NOCc2ccccc2)c2ccco2)cc1 | 32 (≈ 67.4 µM) |
| O=C(Nc1ccc(Br)cc1C(=O)O)c1ccc(OCC2CCOC2)cc1 (centres unmarked) | 128 (≈ 305 µM) |
| O=C(Nc1ccc(Cl)cc1C(=O)O)c1cccc(C(NCc2cccc(Cl)c2)c2ccco2)c1 (centres unmarked) | 8 (≈ 16.1 µM) |
| O=C(Nc1ccc(Cl)cc1C(=O)O)c1cccc(C(NCc2cccc(Cl)c2)c2ccccc2)c1 (centres unmarked) | 16 (≈ 31.7 µM) |
| O=C(Nc1ccc(Cl)cc1C(=O)O)c1cccc(C(NC2CCc3ccccc32)c2ccccc2)c1 (centres unmarked) | 16 (≈ 32.2 µM) |
| O=C(Nc1ccc(Cl)cc1C(=O)O)c1cccc(C(NC2CCCC2)c2ccccc2)c1 (centres unmarked) | 4 (≈ 8.91 µM) |
| O=C(Nc1ccc(Cl)cc1C(=O)O)c1ccc(C(=O)c2c[nH]c3ccccc23)cc1 | 8 (≈ 19.1 µM) |

Now from value to compound:

| MIC [µg/mL] | Structure (SMILES) |
| --- | --- |
| 8 (≈ 19.9 µM) | O=C(Nc1ccc(Cl)cc1C(=O)O)c1cccc(I)c1 |
| 2 (≈ 4.98 µM) | O=C(Nc1ccc(Cl)cc1C(=O)O)c1ccc(I)cc1 |
| 2 (≈ 3.79 µM) | O=C(Nc1ccc(Cl)cc1C(=O)O)c1ccc(I)c(I)c1 |
| 128 (≈ 464 µM) | O=C(Nc1ccc(Cl)cc1C(=O)O)c1ccccc1 |
| 4 (≈ 10.5 µM) | O=C(Nc1ccc(Cl)cc1C(=O)O)c1ccc(C(=O)c2ccccc2)cc1 |
| 8 (≈ 21.4 µM) | CCCCCC(=O)c1cccc(C(=O)Nc2ccc(Cl)cc2C(=O)O)c1 |
| 4 (≈ 10.7 µM) | CCCCCC(=O)c1ccc(C(=O)Nc2ccc(Cl)cc2C(=O)O)cc1 |
| 32 (≈ 68.1 µM) | COc1cc(C(=O)c2cccc(C(=O)Nc3ccc(Cl)cc3C(=O)O)c2)cc(OC)c1OC |
| 4 (≈ 9.66 µM) | O=C(Nc1ccc(Cl)cc1C(=O)O)c1cccc(C(=O)c2ccc(Cl)cc2)c1 |
| 8 (≈ 21.5 µM) | O=C(Nc1ccc(Cl)cc1C(=O)O)c1cccc(C(=O)C2CCCC2)c1 |
| 8 (≈ 19.5 µM) | COc1ccc(C(=O)c2cccc(C(=O)Nc3ccc(Cl)cc3C(=O)O)c2)cc1 |
| 8 (≈ 21.6 µM) | O=C(Nc1ccc(Cl)cc1C(=O)O)c1cccc(C(=O)c2ccco2)c1 |
| 8 (≈ 18 µM) | O=C(COc1ccc(Cl)cc1)c1cccc(C(=O)Nc2ccc(Cl)cc2C(=O)O)c1 |
| 4 (≈ 9.46 µM) | CN(C)c1ccc(C(=O)c2cccc(C(=O)Nc3ccc(Cl)cc3C(=O)O)c2)cc1 |
| 4 (≈ 9.44 µM) | O=C(Nc1ccc(Cl)cc1C(=O)O)c1cccc(C(=O)c2ccc3c(c2)OCO3)c1 |
| 2 (≈ 4.88 µM) | COc1ccc(C(=O)c2ccc(C(=O)Nc3ccc(Cl)cc3C(=O)O)cc2)cc1 |
| 4 (≈ 9.66 µM) | O=C(Nc1ccc(Cl)cc1C(=O)O)c1ccc(C(=O)c2ccc(Cl)cc2)cc1 |
| 4 (≈ 10.8 µM) | O=C(Nc1ccc(Cl)cc1C(=O)O)c1ccc(C(=O)c2ccco2)cc1 |
| 8 (≈ 19.7 µM) | CCCCCOc1cccc(C(=O)Nc2ccc(Br)cc2C(=O)O)c1 |

| MIC [µg/mL] | Structure (SMILES) |
| --- | --- |
| 2 (≈ 5.29 µM) | CC(C)Oc1cccc(C(=O)Nc2ccc(Br)cc2C(=O)O)c1 |
| 16 (≈ 40.1 µM) | CON=C(c1cccc(C(=O)Nc2ccc(Cl)cc2C(=O)O)c1)c1ccco1 |
| 8 (≈ 21.4 µM) | CCC(CC)C(=O)c1cccc(C(=O)Nc2ccc(Cl)cc2C(=O)O)c1 |
| 16 (≈ 38.8 µM) | CCCNC(c1cccc(C(=O)Nc2ccc(Cl)cc2C(=O)O)c1)c1ccco1 (centres unmarked) |
| 128 (≈ 342 µM) | O=C(Nc1ccc(Cl)cc1C(=O)O)c1cccc(C(=O)C2CCOC2)c1 (centres unmarked) |
| 8 (≈ 18.9 µM) | CCCNC(c1ccccc1)c1cccc(C(=O)Nc2ccc(Cl)cc2C(=O)O)c1 (centres unmarked) |
| 4 (≈ 10.1 µM) | O=C(Nc1ccc(Cl)cc1C(=O)O)c1cccc(C(=NO)c2cccnc2)c1 |
| 8 (≈ 17.9 µM) | CCCNC(c1cccc(C#N)c1)c1cccc(C(=O)Nc2ccc(Cl)cc2C(=O)O)c1 (centres unmarked) |
| 64 (≈ 171 µM) | O=C(Nc1ccc(Cl)cc1C(=O)O)c1cccc(C(=O)C2CCCO2)c1 (centres unmarked) |
| 32 (≈ 63.9 µM) | CCCNC(c1cccc(C(=O)Nc2ccc(Cl)cc2C(=O)O)c1)c1cccc(S(C)(=O)=O)c1 (centres unmarked) |
| 16 (≈ 34.9 µM) | CS(=O)(=O)c1cccc(C(=O)c2cccc(C(=O)Nc3ccc(Cl)cc3C(=O)O)c2)c1 |
| 4 (≈ 10.7 µM) | CCC(CC)C(=O)c1ccc(C(=O)Nc2ccc(Cl)cc2C(=O)O)cc1 |
| 16 (≈ 41.2 µM) | O=C(Nc1ccc(Cl)cc1C(=O)O)c1cccc(C(=NO)C2CCCO2)c1 (centres unmarked) |
| 8 (≈ 18.9 µM) | CCCNC(c1cccnc1)c1cccc(C(=O)Nc2ccc(Cl)cc2C(=O)O)c1 (centres unmarked) |
| 8 (≈ 19.1 µM) | N#Cc1cccc(C(=NO)c2ccc(C(=O)Nc3ccc(Cl)cc3C(=O)O)cc2)c1 |
| 32 (≈ 80.8 µM) | O=C(Nc1ccc(Cl)cc1C(=O)O)c1ccc(C(=NO)c2cccnc2)cc1 |
| 16 (≈ 44.2 µM) | CCOCC(=O)c1ccc(C(=O)Nc2ccc(Cl)cc2C(=O)O)cc1 |
| 16 (≈ 33.8 µM) | CS(=O)(=O)c1cccc(C(=NO)c2ccc(C(=O)Nc3ccc(Cl)cc3C(=O)O)cc2)c1 |
| 32 (≈ 69.9 µM) | CS(=O)(=O)c1cccc(C(=O)c2ccc(C(=O)Nc3ccc(Cl)cc3C(=O)O)cc2)c1 |
